{
  "source": "patent US9551711B2",
  "about": "“Compositions and methods for detecting nitration of PKG-1α and methods of use thereof” (Augusta University Research Institute, Inc., priority 2013, dated 2017)",
  "key": {"[1]": {"biological_target": "T1, PKG-1α (Homo sapiens, UniProt Q13976, Y247F)", "T1 sequence (Q13976 2-671 Y247F)": "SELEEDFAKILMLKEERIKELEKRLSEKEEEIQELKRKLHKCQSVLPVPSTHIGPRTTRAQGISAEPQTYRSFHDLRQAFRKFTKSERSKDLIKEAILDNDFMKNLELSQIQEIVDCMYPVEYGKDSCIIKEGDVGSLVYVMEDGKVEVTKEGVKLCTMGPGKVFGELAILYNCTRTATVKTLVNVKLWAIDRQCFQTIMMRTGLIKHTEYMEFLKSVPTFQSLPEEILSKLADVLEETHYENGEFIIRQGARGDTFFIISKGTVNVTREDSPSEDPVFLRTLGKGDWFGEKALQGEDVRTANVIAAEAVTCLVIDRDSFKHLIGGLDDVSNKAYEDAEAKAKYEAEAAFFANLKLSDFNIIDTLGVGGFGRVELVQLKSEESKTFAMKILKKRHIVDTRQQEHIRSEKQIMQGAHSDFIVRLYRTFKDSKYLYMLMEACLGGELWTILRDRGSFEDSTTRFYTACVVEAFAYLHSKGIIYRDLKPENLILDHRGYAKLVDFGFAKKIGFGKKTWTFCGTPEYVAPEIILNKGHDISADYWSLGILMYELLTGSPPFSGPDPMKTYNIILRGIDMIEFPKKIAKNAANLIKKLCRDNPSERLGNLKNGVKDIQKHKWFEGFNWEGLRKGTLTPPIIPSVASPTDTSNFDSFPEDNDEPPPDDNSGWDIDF", "assay": "PKG catalytic activity, Michaelis-Menten kinetics for cGMP", "format": "biochemical", "design": "made in house; host or cells: HEK-293T", "conditions": "Y247F mutant upon SIN-1 treatment", "procedure": "Total PKG activity was determined using a non-radioactive immunoassay in cell lysates, according to the manufacturer's directions. Briefly, protein samples were diluted in kinase reaction buffer containing Mg^2+ and ATP (125 μM) in the presence or absence of 8-Br cGMP (10 μM) and incubated in a 96 well plate pre-coated with a PKG substrate containing threonine residues phosphorylated by PKG.\nAfter incubation for 30 min at 30° C. to allow the phosphorylation of the bound substrate, an HRP conjugated anti-phosphothreonine specific antibody was added to convert a chromogenic substrate to a colorimetric substrate that was subsequently read spectrophotometrically at 450 nm. The change in absorbance reflected the relative activity of PKG in the sample. The results were reported as pmols of phosphate incorporated into the GST-G substrate fusion protein by active PKG in the sample in the presence or absence of cGMP (10 μM) per minute at 30° C. per μg of protein (pmol/min/μg). […] The kinetic constants were determined using nonlinear regression (curve fit) analysis (GraphPad Prism Software Inc.).\nTo determine the Michaelis-Menten constant (Km) for cGMP, the kinase assay was performed, as mentioned above; however, the cGMP concentration was titrated from 0-10 μM, while the ATP concentration remained constant at 125 μM."}, "[2]": {"tested_on": "pulmonary artery smooth muscle cells (PASMC)", "assay": "PASMC immunocytochemistry for SM22-α and PCNA", "format": "cell-based, lamb", "conditions": "SIN-1 500 μM, 48 h", "procedure": "Semi-confluent PASMC grown on a coverslip in a 6-well plate were transfected with a mammalian expression plasmid containing either a wild-type (WT)- or Y247F-PKG-1α cDNA. After 20 h, the cells were serum starved (1% FBS) for 4 h then exposed or not to SIN-1 (500 μM) for 48 h. The cells were washed with PBS, methanol fixed (5 min), and permeabilized in 0.1% PBS-Tween (20 min). The cells were then washed 3× with PBS and blocked for non-specific protein-protein interactions with 1% BSA in PBS (1 h). The antibodies, smooth muscle (SM) 22-α (5 μg/ml) or proliferating cell nuclear antigen (PCNA) (1 μg/ml) diluted in 1% BSA in PBS, were added and incubated overnight at 4° C. The cells were again washed 3× with PBS and incubated in secondary antibody (green): Alexa Fluor 488 goat anti-mouse IgG (H+L) (1/1000 dilution) for PCNA or Alexa Fluor 488 donkey anti-goat IgG (H+L) (1/1000 dilution) for SM22-α for 1 h in the dark. DAPI was used to stain the cell nuclei (blue) at a concentration of 0.5 μg/ml for 3 min. The cells were rinsed 3× with PBS, and the coverslips were mounted on the slides with ProLong Gold Antifade and analyzed with the use of a Nikon Eclipse TE 300 inverted fluorescent microscope with a 60× oil objective and a Hamamatsu digital camera.\n(§1) To assess the effect of nitration on pulmonary arterial smooth muscle cell (PASMC) phenotype, PASMC were transiently transfected with expression plasmids containing WT-PKG-1α, Y247F-PKG-1α, or PDEST40 (as a control) for 20 h. Cells were then exposed or not to SIN-1 (500 μM, 48 h) and the effect on synthetic and contractile markers determined. The levels of myosin heavy chain (MYH, FIG. 3A), Calponin-1 (FIG. 3B), and Vimentin (FIG. 3C) were determined. The blots were then stripped and re-probed for β-actin to normalize for protein loading. PASMC were also subjected to immunohistochemistry using antibodies to SM22-α (5 μg/ml) and PCNA (1 μg/ml). Relevant secondary antibodies linked to Alexa Fluor 488 (green) were then applied. DAPI was also used to stain (blue) the cell nuclei."}, "[3]": {"tested_on": "pulmonary artery smooth muscle cells (PASMC)", "assay": "PASMC phenotype markers MYH, Calponin-1, Vimentin (Western blot)", "format": "cell-based, lamb", "conditions": "WT-PKG-1α transfected PASMC; SIN-1 500 μM, 48 h", "procedure": "as §1"}},
  "data": [
    {"substance": "3-morpholinosydnonimine N-ethylcarbamide [SIN-1]", "values": [
      {"measurement": "change of Michaelis-Menten constant (Km) for cGMP", "setting": "[1]", "value": "no significant change"},
      {"measurement": "PCNA staining", "setting": "[2]; WT-PKG-1α expressing PASMC", "value": "increased"},
      {"measurement": "SM-22α expression", "setting": "[2]; WT-PKG-1α expressing PASMC", "value": "attenuated"},
      {"measurement": "filamentous SM22-α expression and nuclear staining of PCNA", "setting": "[2]; Y247F-PKG-1α expressing PASMC", "value": "unaffected"},
      {"measurement": "expression of contractile marker Calponin-1", "setting": "[3]", "value": "decreased"},
      {"measurement": "expression of contractile marker MYH", "setting": "[3]", "value": "decreased"},
      {"measurement": "expression of proliferative marker Vimentin", "setting": "[3]", "value": "increased"}
    ]}
  ]
}
